Data on 3 compounds can be found in patent US9226498B2.

Where two headings read alike, the source gives them in different places.

The subject of data set [1] is spring barley (HORVS). Briefly: Trial IV cont. field trial, postemergence crop injury. The data set is classed as in vivo, Hordeum vulgare L.
Data set [2] deals with tame oats (AVESA). Briefly: Trial III field trial, postemergence crop injury. The data set is classed as in vivo, Avena sativa.
The test system of data set [3] is spring barley (HORVS). Kind of data set: Trial V field trial, postemergence crop injury. The data set is classed as in vivo, Hordeum vulgare L.
Data set [4] concerns tame oats (AVESA). Briefly: Trial IV field trial, postemergence crop injury. In kind it is in vivo, Avena sativa.
For data set [5], the system named is spring wheat (TRZAS). As to conditions: Trial I.
Text: (§1) Five small plot field trials were established across various ecozones to evaluate the crop safety of florasulam and 4-amino-3-chloro-6-(4-chloro-2-fluoro-3-methoxy-phenyl)pyridine-2-carboxylic acid TEA (triethylamine) salt or of florasulam and 4-amino-3-chloro-6-(4-chloro-2-fluoro-3-methoxyphenyl)pyridine-2-carboxylic acid methyl ester, when applied alone or in combination, on spring cereals including spring wheat, spring barley and tame oats.
(§2) In Trials III, IV, and V the methyl ester of the compound of formula (I) was applied alone at rates of 5-10 g ae/ha using a formulation containing 200 grams acid equivalent per kilogram (g ae/kg) of the methyl ester with 0.5% v/v Turbocharge adjuvant. […] All herbicide treatments were applied post-emergence in the spring to early summer Herbicides were applied with bicycle- or tractor-mounted sprayers using carbon dioxide (CO2) as a propellant. The sprayers delivered a uniform spray pattern that provided thorough coverage of the foliage using a 100 liter per hectare (L/ha) spray volume. At the time of herbicide applications, spring barley, spring wheat and tame oats were at the two leaf stage to the seven leaf, three tiller stage. Phytotoxicity to cereal crops was visually assessed as percent overall injury, compared to an untreated control plot. The overall injury assessments were based on visual ratings of growth inhibition, chlorosis, and delay in maturity. At late ratings, percent visual seed head deformity was also assessed. Trials were designed as randomized complete blocks with four replicates. In general, three to four replicates were assessed for each treatment.
(§3) Colby's equation is: Expected=A+B−(A×B/100) • A=observed efficacy of active ingredient A at the same concentration as used in the mixture; • B=observed efficacy of active ingredient B at the same concentration as used in the mixture.
Data set [6] has as its system spring wheat (TRZAS). To be noted: Trial II.
Text: as §1, §2, §3

With `COC(=O)c1nc(-c2ccc(Cl)c(OC)c2F)cc(N)c1Cl` [Compound II], in the data set with spring barley (HORVS) [1] (Compound II 5 g ae/ha alone), the “Percent (%) Visual Head Deformity Obs” value is on record as 0.0 a %, the “Percent (%) Visual Injury 7 DAT Obs” value is given as 0.0 e %, the “Percent (%) Visual Injury 14 DAT Obs” value was 0.0 c % and the “Percent (%) Visual Injury 28 DAT Obs” value is given as 3.3 de %. For the same compound, in the data set on spring barley (HORVS) [1] (Compound II 5 g ae/ha alone), the “Percent (%) Visual Injury 70 DAT Obs” value was found to be 2.5 fgh %. In the data set on spring barley (HORVS) [1] (Compound II 10 g ae/ha alone), the “Percent (%) Visual Head Deformity Obs” value came to 1.3 a %, the “Percent (%) Visual Injury 7 DAT Obs” value is on record as 0.0 e %, the “Percent (%) Visual Injury 14 DAT Obs” value was 0.0 c % and the “Percent (%) Visual Injury 28 DAT Obs” value was 14.5 ab %. Also, in the data set on spring barley (HORVS) [1] (Compound II 10 g ae/ha alone), the “Percent (%) Visual Injury 70 DAT Obs” value is reported as 9.4 abc %. In addition, in the data set on tame oats (AVESA) [2] (Compound II 5 g ae/ha alone), the “Percent (%) Visual Head Deformity 70 DAT Obs” value is listed as 7.5 cd %, the “Percent (%) Visual Injury 7 DAT Obs” value is recorded as 0.0 d %, the “Percent (%) Visual Injury 16 DAT Obs” value was 2.5 de % and the “Percent (%) Visual Injury 31 DAT Obs” value is given as 5.0 fg %. Besides, the “Percent (%) Visual Injury 70 DAT Obs” value in the data set with tame oats (AVESA) [2] (Compound II 5 g ae/ha alone) is given as 15.8 def %. Also, in the data set on tame oats (AVESA) [2] (Compound II 10 g ae/ha alone), the “Percent (%) Visual Head Deformity 70 DAT Obs” value is 15.0 bcd %, the “Percent (%) Visual Injury 7 DAT Obs” value is listed as 0.0 d %, the “Percent (%) Visual Injury 16 DAT Obs” value stood at 13.8 cde % and the “Percent (%) Visual Injury 31 DAT Obs” value was found to be 25.0 de %. In addition, the “Percent (%) Visual Injury 70 DAT Obs” value in the data set on tame oats (AVESA) [2] (Compound II 10 g ae/ha alone) is 33.8 bcd %. In the data set with spring barley (HORVS) [3] (Compound II 5 g ae/ha alone), the “Percent (%) Head Deformity 64 DAT Obs” value is on record as 0.3 b %, the “Percent (%) Injury Visual 15 DAT Obs” value is 0.5 a %, the “Percent (%) Visual Injury 27 DAT Obs” value is 1.0 c % and the “Percent (%) Visual Injury 49 DAT Obs” value worked out at 0.0 c %. In the data set with spring barley (HORVS) [3] (Compound II 10 g ae/ha alone), the “Percent (%) Head Deformity 64 DAT Obs” value was 21.8 ab %, the “Percent (%) Injury Visual 15 DAT Obs” value is 0.5 a %, the “Percent (%) Visual Injury 27 DAT Obs” value was found to be 0.0 c % and the “Percent (%) Visual Injury 49 DAT Obs” value is recorded as 0.5 bc %. In the data set on tame oats (AVESA) [4] (Compound II 5 g ae/ha alone), the “Percent (%) Visual Injury 7 DAT Observed” value is given as 0.0 d %, the “Percent (%) Visual Injury 14 DAT Observed” value came out at 2.0 cde %, the “Percent (%) Visual Injury 28 DAT Observed” value stood at 3.3 de % and the “Percent (%) Visual Injury 53 DAT Observed” value is on record as 2.5 fgh %. In addition, in the data set on tame oats (AVESA) [4] (Compound II 10 g ae/ha alone), the “Percent (%) Visual Injury 7 DAT Observed” value amounted to 1.3 bcd %, the “Percent (%) Visual Injury 14 DAT Observed” value was determined as 9.5 abc %, the “Percent (%) Visual Injury 28 DAT Observed” value amounted to 14.5 ab % and the “Percent (%) Visual Injury 53 DAT Observed” value turned out to be 9.4 abc %.
For `COc1c(Cl)ccc(-c2cc(N)c(Cl)c(C(=O)O)n2)c1F` [Compound I], in the data set on spring wheat (TRZAS) [5] (Compound I 17.5 g ae/ha alone), the “Percent (%) Visual Incidence Head Deformity 71 DAT Obs” value is 20 d-g % and the “Percent (%) Visual Injury 71 DAT Obs” value worked out at 12.5 cd %. In the data set on spring wheat (TRZAS) [5] (Compound I 35 g ae/ha alone), the “Percent (%) Visual Incidence Head Deformity 71 DAT Obs” value is reported as 60 a % and the “Percent (%) Visual Injury 71 DAT Obs” value was 32.5 a %. Also, in the data set with spring wheat (TRZAS) [6] (Compound I 17.5 g ae/ha alone), the “Percent (%) Visual Incidence Head Deformity 55 DAT Obs” value was determined as 7.5 cde % and the “Percent (%) Visual Injury 55 DAT Obs” value came to 5.8 de %. Besides, in the data set on spring wheat (TRZAS) [6] (Compound I 35 g ae/ha alone), the “Percent (%) Visual Incidence Head Deformity 55 DAT Obs” value is listed as 43.8 ab % and the “Percent (%) Visual Injury 55 DAT Obs” value came to 35 a %.
On to `COc1ncc(F)c2nc(S(=O)(=O)Nc3c(F)cccc3F)nn12` [Florasulam, 2′,6′,8-trifluoro-5-methoxy[1,2,4]triazolo[1,5-c]pyrimidine-2-sulfonanilide, reference compound], for which, in the data set with spring wheat (TRZAS) [5] (Florasulam 5 g ai/ha alone), the “Percent (%) Visual Incidence Head Deformity 71 DAT Obs” value is given as 0.0 g % and the “Percent (%) Visual Injury 71 DAT Obs” value came to 0 e %. Moreover, in the data set on spring wheat (TRZAS) [6] (Florasulam 5 g ai/ha alone), the “Percent (%) Visual Incidence Head Deformity 55 DAT Obs” value amounted to 0.0 e % and the “Percent (%) Visual Injury 55 DAT Obs” value is reported as 0.0 e %.
